Measured values: US20240254093A1, “GPR35 Agonist Compounds” (Heptares Therapeutics Limited, priority 2021, published 2024)
Where two headings read alike, the source gives them in different places.

Legend:
GPR35 [1] = molecular target: T1, GPR35 (Homo sapiens (Human), UniProt Q9HC97); conditions: reported in US20130316985; read-out: EC50 (weak agonist activity at GPR35); cited from earlier work
Target sequence in this assay (Q9HC97 whole entry, species assumed): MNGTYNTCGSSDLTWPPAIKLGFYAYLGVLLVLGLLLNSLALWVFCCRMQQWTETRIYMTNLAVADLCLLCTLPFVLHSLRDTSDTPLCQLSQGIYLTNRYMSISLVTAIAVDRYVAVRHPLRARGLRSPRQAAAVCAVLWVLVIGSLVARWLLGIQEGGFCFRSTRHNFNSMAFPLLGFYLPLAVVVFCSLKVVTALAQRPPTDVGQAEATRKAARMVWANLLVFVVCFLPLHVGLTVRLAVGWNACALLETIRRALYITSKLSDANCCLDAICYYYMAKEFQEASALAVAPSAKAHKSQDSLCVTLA

GPR35 [2] = molecular target: T1, GPR35; conditions: human vs rat GPR35; cited from earlier work
Target sequence in this assay (Q9HC97 whole entry): as the sequence (Q9HC97 whole entry, species assumed) above

Human GPR35a isoform = Human GPR35a isoform (Homo sapiens (Human), UniProt Q9HC97); assay: Human GPR35a isoform binding (radioligand, HEK293f membranes); conditions: HEKf cell membranes overexpressing GPR35a isoform; read-out: Human GPR35 Ki
Protocol: Overexpression of Human GPR35a Baculovirus in HEK293f cells at a cell density of 2.5×10^6 cells/mL and a multiplicity of infection of 2.5 over 24 h in Pro293 (Lonza)+5% FBS, 1% Glutamax and 0.4% Pen/Strep. Cells harvested and centrifuged at 2500 RPM for 10 mins at 4° C. The supernatant was then poured off and the pellet stored at −80° C. The pellet was defrosted and re-suspended in 15 mL of homogenising buffer (20 mM HEPES, 10 mM EDTA, pH 7.4). Then homogenised in mechanical homogeniser (VMR) for 10 seconds. The membrane was centrifuged in centrifuge tubes at 40,000 g for 15 mins at 4° C. The supernatant was poured away and re-suspended in 15 mL of homogenising buffer. Homogenised for 20 seconds. The membrane was centrifuged at 40,000 g for 45 mins at 4° C. The membrane was re-suspended in 3 mL of storage buffer (20 mM HEPES, 0.1 mM EDTA, pH 7.4) mixing well. The resulting membranes were then stored at −80°. GPR35 cell membrane homogenates were re-suspended in the binding buffer (50 mM TRIS+10 mM MgCl2 pH 7.4) to a final assay concentration of 5 ug/well. Test compounds were diluted in dimethylsulphoxide (DMSO (Sigma Aldrich, UK)), to form a 10 point ½ log concentration curve. Test compounds were added per plate, followed by 7 nM 3H-27966. 0.1 uM FAC Lodoxamide was added in order to allow non-specific binding to be calculated. Finally, membrane was added to each well on the plate. After 60 min incubation at room temperature, membranes were filtered onto a unifilter, 96-well white microplate with bonded GF/B filter, pre-soaked in ddH20, with a TomTec cell harvester, and washed 5 times with distilled water. Plates were dried prior to 50 ul/well scintillant added, sealed and radioactivity measured using a MicroBeta analyser. IC50 values were derived from the inhibition curve and affinity constant (Ki) values were calculated using the Cheng-Prussoff equation, where; pKi=−log 10 Ki.
(§1) • Ki values derived from concentration response analysis in HEKf cell membranes overexpressing GPR35a isoform. EC50 values derived from concentration response analysis in HT-29 cell line endogenously expressing human GPR35.

[3] = system: indomethacin ileitis and barrier permeability; assay: indomethacin ileitis and barrier permeability; type: in vivo; conditions: preclinical species
GPR35 [4] = molecular target: T1, GPR35; assay: selectivity for GPR35 / off-target effects
Target sequence in this assay (Q9HC97 whole entry, species assumed): as above

[5] = system: major human CYPs, including CYP3A4; assay: drug interaction potential for major human CYPs; type: in vitro ADME
TNBS visceral pain = assay: TNBS mouse visceral pain model; type: in vivo
GPR35 [6] = molecular target: T1, GPR35; assay: Label-free DMR functional assay in HT-29 cells; type: cell-based; conditions: for EC50: HT-29 cell line endogenously expressing human GPR35, DMR normalised to Lodoxamide
Protocol: HT-29 cells (ATCC HTB-38) kept in continuous culture in McCoys (Thermo 16600082) supplemented with 10% FBS. Day prior to assay, cells harvested with TrypLE (Gibco12604-013), and plated at 20 k/well in culture media in a total volume of 50 ul in Corning EPIC 384 well plates (5040) overnight 37° C. 5% CO2. On the day of assay, cell media was removed and replaced with assay buffer (HBSS+20 mM HEPES pH7.4) and reincubated for 1 h. Compounds were prepared in 100% DMSO in ECHO LDV 384 source plates. Cell plates were read on an EPIC plate reader at room temperature for 15 mins, read paused, and cell plate added to LabCyte ECHO 550 for addition of 50 nl per well compound by acoustic transfer. Plates were immediately placed back into the EPIC reader, read unpaused and Dynamic Mass Redistribution measured for 60 minutes. Raw data was analysed by EPIC Analyser software and max peak taken per concentration to enable EC50 determination. All raw DMR data was normalised to Lodoxamide and buffer corrected.
as §1
Target sequence in this assay (Q9HC97 whole entry): as the sequence (Q9HC97 whole entry, species assumed) above

LPS challenge = assay: acute rat and mouse LPS challenge; type: in vivo
[7] = system: PGE2-induced fluid secretion; assay: PGE2-induced fluid secretion; type: in vivo; conditions: preclinical species

Chain of Human GPR35a isoform (Q9HC97 whole entry, canonical isoform): as the sequence (Q9HC97 whole entry, species assumed) above

In the case of `O=C(O)c1cc(/N=N/c2ccc(S(=O)(=O)Nc3ccccn3)cc2)ccc1O` [sulfasalazine], the EC50 (GPR35 [1]) is listed as about 3000 nM.
For `Nc1ccc(O)c(C(=O)O)c1` [5-aminosalicylic acid], the EC50 (GPR35 [1]) is given as about 3000 nM.
For `O=C(O)c1cc(=O)c2ccccc2[nH]1` [kynurenic acid], the “potency at the human receptor lower compared to the rat ortholog” value (GPR35 [2]) is given as “at least 100 fold”.
In the case of `O=C(NCc1ccccc1)c1ccc(-c2cc(Nc3c(O)c(=O)c3=O)cc(-c3nn[nH]n3)c2)cc1` [Example 5, N-benzyl-3′-((2-hydroxy-3,4-dioxocyclobut-1-en-1-yl)amino)-5′-(1H-tetrazol-5-yl)-[1,1′-biphenyl]-4-carboxamide], the Ki (Human GPR35a isoform) is reported as 0.08 nM, the “pharmacology in indomethacin ileitis and barrier permeability” value [3] is reported as “showed pharmacology” and the off-target effects (GPR35 [4]) is reported as “no off-target effects have been observed”. The “selectivity for GPR35” value (GPR35 [4]) was “strong selectivity”, the “drug interaction potential for the major human CYPs” value [5] was “very low drug interaction potential” and the “pharmacology in TNBS mouse visceral pain model” value (TNBS visceral pain) was “showed pharmacology”. For the same molecule, the EC50 (GPR35 [6]) was 0.52 nM, the “functional potency for GPR35 higher than Cromolyn” value (GPR35 [6]; relative to Cromolyn) was “about 500 times” and the “pharmacology in acute rat and mouse LPS challenge” value (LPS challenge) was “showed pharmacology”. The “pharmacology in PGE2-induced fluid secretion” value [7] was “showed pharmacology”.
For `COCCNC(=O)c1ccc(-c2cc(Nc3c(O)c(=O)c3=O)cc(-c3nn[nH]n3)c2)cc1` [Example 7, 3′-((2-hydroxy-3,4-dioxocyclobut-1-en-1-yl)amino)-N-(2-methoxyethyl)-5′-(1H-tetrazol-5-yl)-[1,1′-biphenyl]-4-carboxamide], the Ki (Human GPR35a isoform) was 2.77 nM and the EC50 (GPR35 [6]) was 4.2 nM.
`O=c1c(O)c(Nc2cc(-c3ccc4[nH]ncc4c3)cc(-c3nn[nH]n3)c2)c1=O` [Example 25, 3-((3-(1H-indazol-5-yl)-5-(1H-tetrazol-5-yl)phenyl)amino)-4-hydroxycyclobut-3-ene-1,2-dione] showed a Ki (Human GPR35a isoform) of 0.37 nM and an EC50 (GPR35 [6]) of 0.44 nM.
Work on `O=c1c(O)c(Nc2ccc(Cl)c(-c3nn[nH]n3)c2)c1=O` [Example 14, 3-((4-chloro-3-(1H-tetrazol-5-yl)phenyl)amino)-4-hydroxycyclobut-3-ene-1,2-dione] yielded a Ki (Human GPR35a isoform) of 0.6 nM and an EC50 (GPR35 [6]) of 4.9 nM.
Molecule `O=c1c(O)c(Nc2cc(-c3nn[nH]n3)cc(C3CCCCC3)c2)c1=O` [Example 28, 3-((3-cyclohexyl-5-(1H-tetrazol-5-yl)phenyl)amino)-4-hydroxycyclobut-3-ene-1,2-dione] has a Ki (Human GPR35a isoform) of 12.5 nM and an EC50 (GPR35 [6]) of 6.65 nM.
With `COc1cc(-c2nn[nH]n2)cc(Nc2c(O)c(=O)c2=O)n1` [Example 17, 3-hydroxy-4-((6-methoxy-4-(1H-tetrazol-5-yl)pyridin-2-yl)amino)cyclobut-3-ene-1,2-dione] the Ki (Human GPR35a isoform) was 7.85 nM and the EC50 (GPR35 [6]) was 9.25 nM.
